Measured values: patent US20260365698A1, “STAPLED PEPTIDES FOR SENSITIZATION OF CANCER TO TREATMENT” (Purdue Research Foundation, priority 2022, published 2026)
Bridge positions count the residues as written; N and C are the ends. Square brackets hold non-standard residues; d marks the D form. Ends that are not written are not given here. Peptide text beside a SMILES is read from it. S5 = C=CCCC[C@](C)(N)C(=O)O

Columns and labels:
Neh1 domain of NRF2 = details: cited from earlier work
[1] = test system: MAFG-NRF2 protein complex; details: cited from earlier work
[2] = test system: non-small cell lung cancer (NSCLC) cells; details: cited from earlier work
proteinase K = assay: Proteinase K peptide stability assay; details: 10 μg/mL proteinase K
Method: Data are from three independent replicates with standard error indicated. Scale bar indicates 50 μm.
Peptide stability assays were performed using the protocols described in Cromm et al., Protease-resistant and cell-permeable double-stapled peptides targeting the Rab8a GTPase, ACS Chemical Biology 11(8): 2375-2382 (2016). Briefly, 55 μM of peptide was incubated with 10 μg/mL proteinase K for the indicated timepoints. At the end of each time point, 50 μL of the reaction mixture were quenched in 100 μL of a 1:1 mixture acetonitrile/water+1% formic acid (FA). Samples were injected and analyzed on a Triple quad. Analysis was done using an Agilent Technologies 1200 Series attached to an Agilent Technologies 6460 Triple Quad LC/MS. Analysis was performed with a ZORBAX XDB-C18 […], 2.1×50 mm column (Agilent Technologies, Inc., Santa Clara, CA). Eluent A: H2O with 0.1% FA. Eluent B: MeCN with 0.1% FA. Purity analysis utilized the gradient as follows: (A:B, 0.3 mL/min): 95:5, 0 minutes; 95:5, 1 minute; 5:95, 5 minutes; 5:95, 8 minutes: 95:5, 8.5 minutes; 95:5, 12.5 minutes.

A549 cells = assay: Confocal microscopy of FITC-labeled peptides, cell permeability; type: cell-based; details: FITC-labeled peptide, 100 μM, 90 minutes, A549 cells
Method: To determine whether this was a result of poor cell permeability by compounds N2S and N3S, fluorophore labeled versions of these peptides were generated, and confocal microscopy was used to determine the abilities of these peptides to enter cells (FIG. 5C).
Briefly, A549 cells at 9.5×10^4 cells/ml in 600 μl media were plated on 10 mm glass-bottomed, 24-well plates (Chemglass Life Sciences Cell Culture Plate, 24-Well, Fisher Scientific, Waltham, MA) and cultured for overnight at 37 °C, 5% CO2, in complete growth medium (RPMI supplemented with 10% fetal calf serum, L-glutamine, and non-essential amino acids). The next day, cells were treated with fresh, pre-warmed complete growth medium supplemented with the desired FITC-labeled peptide or DMSO vehicle control at a final concentration of 100 μM FITC labeled peptide and 1% DMSO. After 90 minutes of treatment, cells were washed three times in warm PBS to remove excess peptide from the cell surface and left in modified Krebs-Ringer buffer solution [KRBH: 134 mM NaCl. 3.5 mM KCl. 1.2 mM KH2PO4, 0.5 mM MgSO4, 1.5 mM CaCl2), 5 mM NaHCO3, 10 mM HEPES (pH 7.4)] containing Hoechst stain at 1 μg/ml. Cells were immediately analyzed under a Nikon A1 confocal microscope (Resonant). The images were taken at 20× magnification with fluorescence excitation wavelengths at 409 for the Hoechst and 488 for the FITC. Images were processed using NIS-Elements AR. Dietrich et al., Cell permeable stapled peptide inhibitor of Wnt signaling that targets 0-catenin protein-protein interactions, Cell Chemical Biology 24(8): 958-968.e5 (2017); Dougherty et al., Enhancing the cell-permeability of stapled peptides with a cyclic cell-penetrating peptide, J Medicinal Chemistry 62(22): 10098 (2019).

His-MafG = molecular target: T1, His-MafG; assay: SPR, pH 7.5
T1 chain: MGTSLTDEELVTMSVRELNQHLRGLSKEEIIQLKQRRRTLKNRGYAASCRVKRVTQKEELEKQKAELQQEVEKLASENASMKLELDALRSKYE

## Cc1ccccc1C(=O)N1CCc2cc(-c3nc(NC(=O)Cc4ccc5c(c4)OCO5)sc3C)ccc21 [ML-385]
Neh1 domain of NRF2
  binding to the Neh1 domain of NRF2: binds to the Neh1 domain of NRF2
[1]
  binding of MAFG-NRF2 complex to regulatory DNA and downstream target gene expression: inhibiting downstream target gene expression
[2]
  cytotoxicity in combination with platinum-based drugs, doxorubicin or taxol: substantially enhances cytotoxicity

## CC(=O)N[C@@H](CC(=O)O)C(=O)N[C@@H](CC(C)C)C(=O)N[C@@H](CC(=O)O)C(=O)N[C@@H](Cc1c[nH]cn1)C(=O)N[C@@H](CC(C)C)C(=O)N[C@@]1(C)CCCC=CCCC[C@@](C)(C(=O)N[C@@H](CCCCN)C(=O)N[C@@H](CC(C)C)C(=O)N[C@@H](CC(C)C)C(=O)N[C@@H](CCCCN)C(=O)N[C@@H](CCC(=O)O)C(=O)N[C@@H](CCCCN)C(N)=O)NC(=O)[C@H](CCCCN)NC(=O)[C@H](CCC(=O)O)NC(=O)[C@H](CC(=O)O)NC1=O [N2S] (Ac-DLDHL[S5]DEK[S5]KLLKEK-NH2; staple 6-10)
Proteinase K; 55 μM peptide
  time at which significant degradation starts: 40 min
A549 cells
  cellular and nuclear permeability: good

## CC(=O)N[C@@H](CC(=O)O)C(=O)N[C@@H](CCC(=O)O)C(=O)N[C@@H](CCCCN)C(=O)N[C@@H](CCC(=O)O)C(=O)N[C@@H](CCCCN)C(=O)N[C@@H](CC(C)C)C(=O)N[C@@]1(C)CCCC=CCCC[C@@](C)(C(=O)N[C@@H](CCC(=O)O)C(=O)N[C@@H](CC(N)=O)C(=O)N[C@@H](CC(=O)O)C(=O)N[C@@H](CCCCN)C(=O)N[C@@H](CO)C(N)=O)NC(=O)[C@H](CCCCN)NC(=O)[C@H](CCC(=O)O)NC(=O)[C@H](CCCCN)NC1=O [N3S] (Ac-DEKEKL[S5]KEK[S5]ENDKS-NH2; staple 7-11)
Proteinase K; for up to 24 hours, 55 μM peptide
  degradation by proteinase K: no significant degradation
A549 cells
  accumulation in the nucleus: very little to no accumulation
  cellular permeability: minimal

## Ac-DEKEKLLKEKGENDKS-NH2 [N3]
Proteinase K; 30 minutes
  degradation of unstapled peptide at shortest timepoint: completely degraded

## Ac-IVELEQDLDHLKDEKE-NH2 [N1]
A549 cells
  cellular permeability: poor

## IVELE[S5]DLD[S5]LKDEKE (staple 6-10; also: biotin-labeled) [N1S (biotin-labeled)]
His-MafG
  Kd: 337 nM
